Tests used:
[1] = test system: RCE cells (Rabbit Corneal Epithelial Cells); assay: Malondialdehyde assay (lipid peroxidation / free radical production) after radiation; format: cell-based; conditions: 2 h preincubation
Text: The malondialdehyde is a product of the lipid peroxidation which occurs following exposure to free radicals of polyinsaturated fat acids. The malondialdehyde production is then routinely interpreted as a production index of the radicals themselves by means of treatment with electromagnetic radiations or oxidant substances. The Q10, as antioxidant, decreases the malondialdehyde production by indicating an action thereof which inhibits the free radicals' formation. To perform the malondialdehyde assay, RCE cells (Rabbit Corneal Epithelial Cells which are rabbit corneal keratocytes immortalized with SV40) have been plated at the density of 5×10^5 cell/plate in 10 plates of Petri with 10-cm diameter and incubated overnight in 5% CO2 atmosphere, 37° C. Then, the plates have been preincubated for 2 hours with Q10 10 μM, Vit.E, Vit. […] At the moment of the test the cells have been detached with trypsin according to standard procedures and counted by means of cell-counting chamber. […]
At 300 μl of buffy coat of each sample, 300 μl of thiobarbituric acid (TBA) by 1% have been added. The mixtures have been incubated at 95° C. for 30 minutes, centrifugated for 20 minutes at 12,000 RPM and the optic absorption of the buffy coat resulting by spettrophotometric analysis at λ=532 nm has been assessed. […]

[2] = test system: RCE cells; assay: Counting of vital cells by trypan blue exclusion test after radiation; format: cell-based, rabbit; conditions: Q10 10 μM in Lutrol F127; excimer laser and 254 nm UV (15,000 μJ/cm^2); FIGS. 5a, 5b
Procedure: However, the fact that the Q10 has a general protection effect against death by radiation is an important data in preventing […] collateral effects. In order to perform the trypan blue test, RCE cells have been plated at a density of 5×10^5 cells/plates with 10-cm diameter incubated overnight at 37° C., […]. Subsequently, the plates have been preincubated for 2 hours with Q10 10 μM dissolved in the Lutrol F127^MT solution or with Lutrol F127™ only. The culture medium has been then replaced by 8 ml of sterile PBS, additioned with Ca^++ and Mg^++ to avoid the cell detachment from the support, and the plates have undergone treatment with excimer laser and λ=254 UV radiation in a Stratalinker apparatus, model 1800 (Stratagene). Subsequently the PBS has been replaced by fresh culture medium additioned with the above reagents. The plates have been incubated for the time shown in FIG. 6a and in FIG. 6b and subsequently detached by trypsin according to standard procedures and resuspended in PBS. To the cell suspension a trypan blue solution in PBS by 1% concentration has been added immediately before the counting performed by means of cell-counting chamber. The number of live cells is shown in the FIGS. 4, 5a and 5b in the non-treated sample percentage.

[3] = cited from earlier work
[4] = test system: RCE cells; assay: ATP levels after excimer laser or 254 nm radiation (firefly luciferase kit); format: cell-based, rabbit; conditions: Q10 10 μM in Lutrol F127; 2 h preincubation; 193 nm excimer laser (FIG. 2a) or 254 nm UV (FIG. 2b)
Procedure: In order to perform the ATP test, RCE cells have been placed at the density of 5×10^5 cells/plate in 10 plates of Petri with 10-cm diameter and incubated overnight in 5% CO2 atmosphere, 37° C. Subsequently the plates have been preincubated for 2 hours with Q10 at 10 μM dissolved in the Lutrol F127™ solution or with Lutrol F127™ only. The culture medium has been then replaced by 8 ml of sterile PBS, additioned with Ca^++ and Mg^++ to avoid the detach of the cells from the support and the plates have been submitted to treatment with excimer laser (λ=193 nm) as shown by FIG. 2a or with 254 nm ultraviolet laser, as shown in FIG. 2b. Subsequently the PBS has been replaced by fresh culture medium additioned with the above reagents and the plates have been incubated for further 2 hours. At the moment of the assay the cells have been detached with trypsin according to standard procedures and counted by means of cell-counting chamber. […] The ATP quantification in the extracts has been performed by the “ATP Determination Kit” (Molecular Probes, USA) kit, based upon the firefly lucipherase according to the supplier instructions. To detect fluorescence, an analyzer for liquid scintillation (Camberra Packard, USA) preset for the bioluminescence analysis has been utilized.

[5] = test system: RCE cells; assay: Counting of cumulative apoptotic deaths by videomicroscopy at time intervals; format: cell-based, rabbit; conditions: Q10 10 μM in Lutrol F127; 193 nm excimer laser and 254 nm UV; 24-72 hours after radiation; FIG. 6
Text: The videomicroscopy at time intervals is up to now one of the few techniques, if not the only one, enabling to have, apart from the cell death-type characterization, the exact quantification thereof too. In fact by continuously considering the cell population it is possible to calculate the number of cumulative deaths without losing any death event due to the disintegration of the cell body which typically occurs during apoptosis.
To perform the experiment RCE cells have been plated at the density of 5×10^5 cells/plate with 10-cm diameter and incubated overnight at 37° C., CO2 10%. Subsequently, the plates have been preincubated for 2 hours with Q10 10 μM dissolved in the Lutrol F127^MT solution or with Lutrol F127™ only. The culture medium has been then replaced by 8 ml of sterile PBS, additioned with Ca^++ and Mg^++ to avoid the cell detachment from the support, and the plates have undergone treatment with excimer laser and λ=254 UV radiation in a Stratalinker apparatus, model 1800 (Stratagene) with various doses. Subsequently the PBS has been replaced by fresh culture medium additioned with the above reagents. […]

COC1=C(OC)C(=O)C(C/C=C(\C)CC/C=C(\C)CC/C=C(\C)CC/C=C(\C)CC/C=C(\C)CC/C=C(\C)CC/C=C(\C)CC/C=C(\C)CC/C=C(\C)CCC=C(C)C)=C(C)C1=O [Q10, ubiquinone Q10]
malondialdehyde levels following treatment with UV at 254 nm ([1]; Q10 10 μM in Lutrol F127, alone or in combination with Vit.E, Vit.C, 254 nm UV 15,000 μJ/cm^2, FIG. 1a): protective effect | malondialdehyde production following treatment with 193 nm excimer laser ([1]; Q10 10 μM in Lutrol F127, various doses of 193 nm excimer laser, FIG. 1b): reductive effect against the malondialdehyde production | vitality of cells (number of live cells, trypan blue) [2]: protective effect on the vitality of cells | solubility in water [3]: non-hydrosoluble substance | ATP level following radiation [4]: protective effect opposing the decrease in the ATP level | cumulative apoptotic deaths [5]: protective effect on cells treated with 193 nm excimer laser and 254 nm UV radiation
